Experimental data: the Kinase Knowledgebase extract (Sharma et al. 2016)

target: PIK3CD (Human) (UniProt O00329); experiment: Assessment of PI3KCD Kinase Activity
Sequence (O00329 whole entry, looked up): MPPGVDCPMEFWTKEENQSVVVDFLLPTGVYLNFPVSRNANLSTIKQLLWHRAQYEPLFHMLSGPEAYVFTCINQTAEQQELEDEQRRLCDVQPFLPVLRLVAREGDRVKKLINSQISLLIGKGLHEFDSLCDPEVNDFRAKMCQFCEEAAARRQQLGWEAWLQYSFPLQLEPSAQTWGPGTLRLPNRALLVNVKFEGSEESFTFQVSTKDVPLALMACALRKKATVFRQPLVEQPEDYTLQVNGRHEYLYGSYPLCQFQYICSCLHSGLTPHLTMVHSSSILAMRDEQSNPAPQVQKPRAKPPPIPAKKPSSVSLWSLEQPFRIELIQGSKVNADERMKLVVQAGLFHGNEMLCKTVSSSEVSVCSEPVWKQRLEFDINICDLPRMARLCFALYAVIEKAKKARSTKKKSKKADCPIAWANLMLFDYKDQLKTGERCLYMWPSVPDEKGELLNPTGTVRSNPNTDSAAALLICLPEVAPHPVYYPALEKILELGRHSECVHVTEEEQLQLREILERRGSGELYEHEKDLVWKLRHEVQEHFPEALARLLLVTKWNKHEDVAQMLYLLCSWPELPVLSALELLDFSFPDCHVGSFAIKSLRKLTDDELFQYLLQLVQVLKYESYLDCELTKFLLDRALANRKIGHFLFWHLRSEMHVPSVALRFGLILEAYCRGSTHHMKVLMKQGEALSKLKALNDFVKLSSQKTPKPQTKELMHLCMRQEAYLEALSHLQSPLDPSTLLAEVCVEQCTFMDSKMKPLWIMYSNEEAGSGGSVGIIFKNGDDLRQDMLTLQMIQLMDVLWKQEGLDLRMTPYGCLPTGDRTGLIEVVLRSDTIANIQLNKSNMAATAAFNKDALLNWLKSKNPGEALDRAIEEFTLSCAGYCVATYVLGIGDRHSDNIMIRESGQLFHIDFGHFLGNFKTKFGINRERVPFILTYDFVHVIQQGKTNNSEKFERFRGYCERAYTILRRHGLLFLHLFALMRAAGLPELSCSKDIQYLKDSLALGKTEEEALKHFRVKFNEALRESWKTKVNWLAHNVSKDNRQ

Row | SMILES | IC50 [nM]
1 | CC(C)n1c(Cn2nc(-c3cc(O)cc(F)c3)c3c(N)ncnc32)cc2cccc(F)c2c1=O | < 100
2 | Cc1csc2nc(Cn3nc(-c4ccc(Cl)c(O)c4)c4c(N)ncnc43)n(-c3ccccc3F)c(=O)c12 | < 100
3 | Cc1ccnc2nc(Cn3nc(I)c4c(N)ncnc43)n(-c3ccccc3F)c(=O)c12 | < 100
4 | COc1ccccc1-n1c(Cn2nc(C#C[C@@H](C)O)c3c(N)ncnc32)nc2scc(C)c2c1=O | < 100
5 | Cc1csc2nc(Cn3nc(Cl)c4c(N)ncnc43)n(-c3ccccc3C(F)(F)F)c(=O)c12 | < 100
6 | Cc1cccc2cc(Cn3nc(I)c4c(N)ncnc43)n(-c3ccccc3F)c(=O)c12 | < 100
7 | Cc1cccc2cc(Cn3nc(-c4cn[nH]c4)c4c(N)ncnc43)n(-c3ccccc3Cl)c(=O)c12 | < 100
8 | Cc1csc2nc(Cn3nc(C#CCO)c4c(N)ncnc43)n(-c3ccccc3F)c(=O)c12 | < 100
9 | Cc1csc2nc(Cn3nc(-c4ccc(F)c(O)c4)c4c(N)ncnc43)n(-c3ccccc3F)c(=O)c12 | < 100
10 | CC(C)n1c(Cn2nc(-c3cc(O)cc(F)c3)c3c(N)ncnc32)cc2ccccc2c1=O | < 100
11 | Cc1ccccc1-n1c(Cn2nc(C#C[C@@H](C)O)c3c(N)ncnc32)cc2cccc(C)c2c1=O | < 100
12 | Cc1cccc2cc(Cn3nc(C#C[C@@H](C)O)c4c(N)ncnc43)n(C3CCCC3)c(=O)c12 | < 100
13 | CCn1c(Cn2nc(-c3cccc(O)c3)c3c(N)ncnc32)cc2cccc(C)c2c1=O | < 100
14 | CCc1ccccc1-n1c(Cn2nc(C#C[C@@H](C)O)c3c(N)ncnc32)cc2cccc(C)c2c1=O | < 100
15 | COc1ccccc1-n1c(Cn2nc(Cl)c3c(N)ncnc32)nc2scc(C)c2c1=O | < 100
16 | Cc1cccc2cc(Cn3nc(-c4cccc(O)c4)c4c(N)ncnc43)n(C3CCC3)c(=O)c12 | < 100
17 | Cc1ccccc1-n1c(Cn2nc(I)c3c(N)nccc32)cc2cccc(C)c2c1=O | < 100
18 | Cc1cccc2cc(Cn3nc(-c4cccc(O)c4)c4c(N)ncnc43)n(C3CCCC3)c(=O)c12 | < 100
19 | Cc1ccnc2cc(Cn3nc(-c4cc(O)cc(F)c4)c4c(N)ncnc43)n(-c3ccccc3F)c(=O)c12 | < 100
20 | Cc1ccccc1-n1c(Cn2nc(Cl)c3c(N)ncnc32)cc2cccc(C)c2c1=O | < 100
21 | Cc1cccc2cc(Cn3nc(-c4cc(O)cc(F)c4)c4c(N)ncnc43)n(C)c(=O)c12 | < 100
22 | Cc1cccc2cc(Cn3nc(-c4cc(O)cc(F)c4)c4c(N)ncnc43)n(-c3ccccc3OCCN3CCOCC3)c(=O)c12 | < 100
23 | COc1ccccc1-n1c(Cn2nc(C#C[C@@H](C)O)c3c(N)ncnc32)cc2cccc(C)c2c1=O | < 100

Row | SMILES | IC50 [nM]
24 | Cc1ccccc1-n1c(Cn2nc(C#CCO)c3c(N)ncnc32)nc2scc(C)c2c1=O | < 100
25 | Cc1ccccc1-n1c(Cn2nc(C#C[C@H](C)O)c3c(N)ncnc32)nc2scc(C)c2c1=O | < 100
26 | Cc1csc2nc(Cn3nc(Br)c4c(N)ncnc43)n(-c3ccccc3C(F)(F)F)c(=O)c12 | < 100
27 | Cc1cccc2cc(Cn3nc(-c4ccc(F)c(O)c4)c4c(N)ncnc43)n(-c3ccccc3F)c(=O)c12 | < 100
28 | COc1ccccc1-n1c(Cn2nc(Br)c3c(N)ncnc32)nc2scc(C)c2c1=O | < 100
29 | Cc1cccc2cc(Cn3nc(-c4cn[nH]c4)c4c(N)ncnc43)n(-c3ccccc3F)c(=O)c12 | < 100
30 | CC(C)n1c(Cn2nc(-c3cccc(O)c3)c3c(N)ncnc32)cc2ccccc2c1=O | < 100
31 | Cc1ccccc1-n1c(Cn2nc(C#N)c3c(N)ncnc32)cc2cccc(C)c2c1=O | < 100
32 | Cc1cccc2cc(Cn3nc(-c4cc(O)cc(F)c4)c4c(N)ncnc43)n(C3CCC3)c(=O)c12 | < 100
33 | Cc1ccccc1-n1c(Cn2nc(-c3cc(O)cc(F)c3)c3c(N)ncnc32)nc2scc(C(F)(F)F)c2c1=O | < 100
34 | Cc1ccccc1-n1c(Cn2nc(C#C[C@@H](C)O)c3c(N)ncnc32)cc2nccc(C)c2c1=O | < 100
35 | Cc1ccccc1-n1c(Cn2nc(-c3cccc(O)c3)c3c(N)ncnc32)cc2ccccc2c1=O | < 100
36 | Cc1cccc2cc(Cn3nc(-c4cn[nH]c4)c4c(N)ncnc43)n(-c3cccc(F)c3)c(=O)c12 | < 100
37 | Cc1ccccc1-n1c(Cn2nc(-c3ccc(O)c(F)c3)c3c(N)ncnc32)cc2nccc(C)c2c1=O | < 100
38 | Cc1cccc2cc(Cn3nc(-c4cccc(O)c4)c4c(N)ncnc43)n(-c3ccccc3F)c(=O)c12 | < 100
39 | Cc1cccc2cc(Cn3nc(I)c4c(N)ncnc43)n(-c3ccccc3OCCN3CCOCC3)c(=O)c12 | < 100
40 | Cc1cccc2cc(Cn3nc(-c4cccc(O)c4)c4c(N)ncnc43)n(C)c(=O)c12 | < 100
41 | Cc1ccccc1-n1c(Cn2nc(Br)c3c(N)ncnc32)nc2sc(C)c(C)c2c1=O | < 100
42 | Cc1ccccc1-n1c(Cn2nc(-c3cc(O)cc(F)c3)c3c(N)nccc32)cc2cccc(C)c2c1=O | < 100
43 | Cc1ccccc1-n1c(Cn2nc(-c3cc(O)cc(F)c3)c3c(N)ncnc32)cc2cccc(F)c2c1=O | < 100
44 | Cc1ccccc1-n1c(Cn2nc(-c3cc(O)cc(F)c3)c3c(N)ncnc32)nc2snc(C)c2c1=O | < 100
45 | Cc1cccc2cc(Cn3nc(-c4cnn(CCO)c4)c4c(N)ncnc43)n(-c3ccccc3F)c(=O)c12 | < 100
46 | Cc1cccc2cc(Cn3nc(-c4cccc(O)c4)c4c(N)ncnc43)n(-c3ccccc3OCCN3CCOCC3)c(=O)c12 | < 100

Row | SMILES | IC50 [nM]
47 | Cc1ccccc1-n1c(Cn2nc(C#C[C@@H](C)O)c3c(N)ncnc32)nc2scc(C)c2c1=O | < 100
48 | CCc1ccccc1-n1c(Cn2nc(C#C[C@@H](C)O)c3c(N)ncnc32)nc2scc(C)c2c1=O | < 100
49 | Cc1ccccc1-n1c(Cn2nc(-c3cc(O)cc(F)c3)c3c(N)ncnc32)nc2c(C)nn(C)c2c1=O | < 100
50 | Cc1csc2nc(Cn3nc(-c4cc(O)cc(F)c4)c4c(N)ncnc43)n(-c3ccccc3Cl)c(=O)c12 | < 100
51 | Cc1ccccc1-n1c(Cn2nc(-c3cccc(O)c3)c3c(N)nccc32)cc2cccc(C)c2c1=O | < 100
52 | Cc1cccc2cc(Cn3nc(-c4ccc(Cl)c(O)c4)c4c(N)ncnc43)n(C(C)C)c(=O)c12 | < 100
53 | Cc1csc2nc(Cn3nc(Br)c4c(N)ncnc43)n(-c3ccccc3F)c(=O)c12 | < 100
54 | CC(C)n1c(Cn2nc(-c3cc(O)cc(F)c3)c3c(N)ncnc32)cc2cccc(Cl)c2c1=O | < 100
55 | CC(C)n1c(Cn2nc(-c3cccc(O)c3)c3c(N)ncnc32)cc2cccc(Cl)c2c1=O | < 100
56 | C=Cc1nn(Cc2cc3cccc(C)c3c(=O)n2-c2ccccc2C)c2ncnc(N)c12 | < 100
57 | Cc1cccc2cc(Cn3nc(C#N)c4c(N)ncnc43)n(-c3ccccc3F)c(=O)c12 | < 100
58 | Cc1cccc2cc(Cn3nc(C#C[C@@H](C)O)c4c(N)ncnc43)n(C3CC3)c(=O)c12 | < 100
59 | Cc1ccccc1-n1c(Cn2nc(-c3cc(O)cc(F)c3)c3c(N)ncnc32)nc2sc(C)c(C)c2c1=O | < 100
60 | Cc1ccccc1-n1c(Cn2nc(C#CCO)c3c(N)ncnc32)cc2cccc(C)c2c1=O | < 100
61 | Cc1csc2nc(Cn3nc(Br)c4c(N)ncnc43)n(-c3ccccc3Cl)c(=O)c12 | < 100
62 | Cc1ccccc1-n1c(Cn2nc(Br)c3c(N)ncnc32)nc2scc(C(F)(F)F)c2c1=O | < 100
63 | Cc1ccncc1-n1c(Cn2nc(I)c3c(N)ncnc32)cc2cccc(C)c2c1=O | < 100
64 | Cc1ccccc1-n1c(Cn2nc(-c3cccc(O)c3)c3c(N)ncnc32)nc2cnn(C)c2c1=O | < 100
65 | COc1ccccc1-n1c(Cn2nc(-c3cccc(O)c3)c3c(N)ncnc32)nc2scc(C)c2c1=O | < 100
66 | Cc1cccc2cc(Cn3nc(C#CCO)c4c(N)ncnc43)n(-c3ccccc3F)c(=O)c12 | < 100
67 | Cc1cccc2cc(Cn3nc(C#C[C@@H](C)O)c4c(N)ncnc43)n(-c3ccccc3O)c(=O)c12 | < 100
68 | Cc1cccnc1-n1c(Cn2nc(-c3cccc(O)c3)c3c(N)ncnc32)cc2cccc(C)c2c1=O | < 100
69 | Cc1ccccc1-n1c(Cn2nc(-c3cccc(O)c3)c3c(N)ncnc32)nc2scc(C(F)(F)F)c2c1=O | < 100

Row | SMILES | IC50 [nM]
70 | Nc1ncnc2c1c(-c1cc(O)cc(F)c1)nn2Cc1cc2cccc(F)c2c(=O)n1-c1ccccc1F | < 100
71 | Cc1csc2nc(Cn3nc(-c4cccc(O)c4)c4c(N)ncnc43)n(-c3ccccc3Cl)c(=O)c12 | < 100
72 | Cc1cccc2cc(Cn3nc(C#C[C@@H](C)O)c4c(N)ncnc43)n(-c3ccccc3F)c(=O)c12 | < 100
73 | Cc1cccc2cc(Cn3nc(I)c4c(N)ncnc43)n(C3CCC3)c(=O)c12 | < 100
74 | Cc1csc2nc(Cn3nc(I)c4c(N)ncnc43)n(-c3ccccc3Cl)c(=O)c12 | < 100
75 | Cc1cccc2cc(Cn3nc(C#C[C@@H](C)O)c4c(N)ncnc43)n(-c3ccccc3Cl)c(=O)c12 | < 100
76 | Cc1cccc2cc(Cn3nc(I)c4c(N)ncnc43)n(C(C)C)c(=O)c12 | < 100
77 | Nc1ncnc2c1c(I)nn2Cc1cc2cccc(Cl)c2c(=O)n1C1CC1 | < 100
78 | Cc1cccc2cc(Cn3nc(-c4cc(O)cc(F)c4)c4c(N)ncnc43)n(C3CCCCC3)c(=O)c12 | < 100
79 | Cc1ccccc1-n1c(Cn2nc(Cl)c3c(N)ncnc32)nc2nccc(C)c2c1=O | < 100
80 | Cc1cccc2cc(Cn3nc(-c4cc(O)cc(F)c4)c4c(N)ncnc43)n(C3CCOCC3)c(=O)c12 | < 100
81 | Cc1csc2nc(Cn3nc(-c4cccc(O)c4)c4c(N)ncnc43)n(-c3ccccc3F)c(=O)c12 | < 100
82 | Cc1csc2nc(Cn3nc(I)c4c(N)ncnc43)n(-c3ccccc3F)c(=O)c12 | < 100
83 | Cc1cccc2cc(Cn3nc(C#C[C@@H](C)O)c4c(N)ncnc43)n(C(C)C)c(=O)c12 | < 100
84 | Cc1ccccc1-n1c(Cn2nc(-c3cc(O)cc(F)c3)c3c(N)ncnc32)cc2ncccc2c1=O | < 100
85 | Cc1cccc2cc(Cn3nc(-c4cccc(O)c4)c4c(N)ncnc43)n(C3CCCCC3)c(=O)c12 | < 100
86 | Cc1cccnc1-n1c(Cn2nc(-c3cccc(O)c3)c3c(N)ncnc32)nc2scc(C)c2c1=O | < 100
87 | COc1ccccc1-n1c(Cn2nc(I)c3c(N)ncnc32)cc2cccc(C)c2c1=O | < 100
88 | Cc1cccc2cc(Cn3nc(-c4cc(O)cc(F)c4)c4c(N)ncnc43)n(C(C)C)c(=O)c12 | < 100
89 | Cc1ccccc1-n1c(Cn2nc(-c3cc(O)cc(F)c3)c3c(N)ncnc32)nc2cnn(C)c2c1=O | < 100
